# Source: US11759444B2, “Methods for cancer and immunotherapy using prodrugs of glutamine analogs” (The Johns Hopkins University, priority 2015, dated 2023)
# “Also recorded” adds a separate entry of the source.
# What was measured:
# [1] = Chemical stability of DON esters and prodrugs; format: physicochemical
# [2] = In vitro plasma stability, human plasma; details: for PLASMA STABILITY Human: Table 2, prodrug 10 μM, 60 min incubation at 37° C., values read as % prodrug remaining
# [3] = In vitro plasma stability, monkey plasma; details: for PLASMA STABILITY Monkey: Table 2, prodrug 10 μM, 60 min incubation at 37° C., values read as % prodrug remaining
# [4] = In vitro plasma stability, mouse plasma; details: Table 2; prodrug 10 μM, 60 min incubation at 37° C.; values read as % prodrug remaining
# [5] = In vitro liver microsomal stability, pig
# [6] = In vitro liver microsomal stability, human
# [7] = Plasma and CSF pharmacokinetics in swine, i.v. infusion; format: in vivo, Göttingen×Yucutan miniature swine; details: 60 min post-administration
PLASMA STABILITY Mouse [4],PLASMA STABILITY Human [2],PLASMA STABILITY Monkey [3],Compound,further results
,,,CCOC(=O)C(N)CCC(=O)C=[N+]=[N-] (centres unmarked) [Compound 2a],chemical stability [1]: unstable
,,,CC(C)OC(=O)C(N)CCC(=O)C=[N+]=[N-] (centres unmarked) [Compound 2b],chemical stability [1]: unstable
,,,CCOC(=O)[C@H](CCC(=O)C=[N+]=[N-])NC(=O)OC(C)OC(=O)C(C)(C)C (some centres unmarked) [Compound 5b],stability in human plasma [2]: stable; stability in monkey plasma [3]: stable
0%,1%,1%,CC(C)C[C@H](N)C(=O)N[C@@H](CCC(=O)C=[N+]=[N-])C(=O)OC(C)C [Compound 9],"liver microsomal stability, pig [5]: moderate-high stability; liver microsomal stability, human [6]: moderate-high stability"
,,,CCOC(=O)[C@@H]1CCC(C=[N+]=[N-])=N1 [Compound 9a],chemical stability [1]: chemically stable even at acidic pH
,,,CC(C)OC(=O)[C@@H]1CCC(C=[N+]=[N-])=N1 [Compound 9b],chemical stability [1]: chemically stable even at acidic pH
0%,0%,0%,Cc1oc(=O)oc1COC(=O)N[C@@H](CCC(=O)C=[N+]=[N-])C(=O)OC(C)C [Compound 13],
0%,88%,75%,CCOC(=O)[C@H](CCC(=O)C=[N+]=[N-])NC(=O)OC(C)OC(=O)C(C)(C)C (some centres unmarked) [Compound 32],
0%,12%,4%,CCOC(=O)[C@H](CCC(=O)C=[N+]=[N-])NC(=O)[C@@H](N)Cc1cc2ccccc2[nH]1 [Compound 34],
0%,0%,0%,CCOC(=O)[C@H](CCC(=O)C=[N+]=[N-])NC(=O)OCc1oc(=O)oc1C [Compound 36],
0%,30%,10%,CC(C)OC(=O)[C@H](CCC(=O)C=[N+]=[N-])NC(=O)[C@@H](N)Cc1cc2ccccc2[nH]1 [Compound 38],
,,,CC(C)OC(=O)[C@H](CCC(=O)C=[N+]=[N-])NC(=O)[C@@H](N)Cc1c[nH]c2ccccc12 [Compound 38a],"liver microsomal stability, pig [5]: moderate-high stability; liver microsomal stability, human [6]: moderate-high stability"
0%,9%,0%,CC(C)OC(=O)[C@H](CCC(=O)C=[N+]=[N-])NC(=O)OCOC(=O)C(C)(C)C [Compound 42],
,,,CC(C)OC(=O)[C@H](CCC(=O)C=[N+]=[N-])NC(=O)OC(OC(=O)C(C)(C)C)c1ccccc1 (some centres unmarked) [Compound 47],CSF delivery of DON [7]: substantially higher amounts of DON; also recorded: enhanced CSF delivery of DON; CSF-to-plasma ratio of DON [7]: increased CSF-to-plasma ratios; also recorded: enhanced CSF:plasma ratio of DON
,,,CC(=O)N[C@@H](Cc1c[nH]c2ccccc12)C(=O)N[C@@H](CCC(=O)C=[N+]=[N-])C(=O)OC(C)C [Compound 60a],"liver microsomal stability, pig [5]: moderate-high stability; liver microsomal stability, human [6]: moderate-high stability"
